Test results from ChEMBL document CHEMBL1139695, “Development of pyrimidine-based inhibitors of Janus tyrosine kinase 3” (Bioorg Med Chem Lett, 2006).
pIC50: −log10 of the molar value.

Assays:
TF-1 [1] = experiment: cells; settings: Homo sapiens
Description: Inhibition of IL3-induced proliferation of TF1 cells

TF-1 [2] = experiment: cells; settings: Homo sapiens; remark: listed apart in the source
Description: Inhibition of IL4-induced proliferation of TF1 cells

pIC50 (TF-1 [1]): 6.20
pIC50 (TF-1 [2]): 6.47
Compound: C[C@H](Nc1ccnc(-n2cnc3ccncc32)n1)c1ccc(F)cc1
